What was measured:
[1] = test system: MADS-box genes (SRD1, IbMADS1); conditions: upon IAA or JA treatment; Noh et al. 2010, Ku et al. 2008; cited from earlier work
[2] = test system: IbENOD93 gene; test: Regulation of IbENOD93 expression by plant hormone treatment (real-time PCR); assay type: in vivo, sweet potato; conditions: 3 hours, fibrous roots of single-leaf plantlets, 25° C., dark
Method: To determine the transcriptional regulation of IbENOD93 gene by treatment with auxin (Indole-3-acetic acid; IAA), jasmonic acid (JA), and […] (6-benzylaminopurine; BA), real-time PCR (RT-PCR) was performed using IbENOD93-specific primers (IbENOD93(360)F 5′-[…]-3′ (SEQ ID. NO.: 9) and IbENOD93(512)R 5′-[…]-3′ (SEQ ID. NO.: 10)).
The roots of sweet potato were treated with hormones according to the following method. Sweet potato plantlets bearing a single leaf and petiole were collected from sweet potato plants and incubated in flasks filled with water for 3 weeks. After fibrous roots had developed from the distal end of the petiole, the single-leaf plantlets were incubated in various concentrations of IAA, JA, and BA solutions (0, 50, 100, 200, 500, 1000 μM) at 25° C. in the dark for 3 hours. After the hormone treatment, total RNA was extracted from the fibrous roots using the RNeasy Plant Mini Kit™ (Qiagen) and used for RT-PCR.
Total RNA (5 μg) was used for first-strand cDNA synthesis using the SuperScript III first-strand cDNA synthesis kit (Invitrogen). The resulting cDNA solution was then diluted with 30 μl of TE and used for PCR. Among a total of 20 μl, 1 μl of the synthesized cDNA was used for the RT-PCR, and KAPA SYBR FAST Master mix (KAPABIOSYSTEMS) was used for a final reaction volume of 16 μl. Real-time PCR analysis was performed using the LightCycler 480 quantification system (Roche Diagnostics) according to the manufacturer's instructions. Expression levels were normalized with β-tubulin expression amplified with 5′-[…]-3′ (SEQ ID. NO.: 11) and 5′-[…]-3′ (SEQ ID. NO.: 12) primers. Real-time PCR was performed starting with pre-denaturation at 95° C. for 10 minutes, followed by 45 cycles of denaturation at 95° C. for 10 seconds, annealing at 58° C. for 10 seconds, and extension at 72° C. for 20 seconds. Following the amplification phase, a melting curve analysis was conducted from 65° C. to 97° C. The second derivative maximum method in the LightCycler 480 quantification software (Roche Diagnostics) was used to evaluate the data.

| Structure (SMILES) | transcript level of MADS-box genes (SRD1, IbMADS1) [1] | transcript level of IbENOD93 ([2]; 200 μM JA) | transcript level of IbENOD93 ([2]; BA at 100 μM or higher) | transcript level of IbENOD93 ([2]; 500 μM IAA) |
| --- | --- | --- | --- | --- |
| CC/C=C\C[C@H]1C(=O)CC[C@@H]1CC(=O)O [JA, jasmonic acid] | increased sharply | increased sharply |  |  |
| c1ccc(CNc2ncnc3nc[nH]c23)cc1 [BA, 6-benzylaminopurine] |  |  | increased slightly |  |
| O=C(O)Cc1c[nH]c2ccccc12 [IAA, Indole-3-acetic acid] | increased sharply |  |  | increased sharply |
